# Calls of active or inactive are those of the source. The calls are words filed in the database; no cut-off is given here.
# Columns and labels:
# [1] = tested on: Zika virus; experiment: Antiviral activity against ZIKV ZG-01 infected in human JEG-3 cells assessed as reduction in GSDME cleavage by Western blot analysis; type: functional, organism-based; settings: dose 1-20 µM
# [2] = tested on: Zika virus; experiment: Antiviral activity against ZIKV ZG-01 infected in human JEG-3 cells assessed as reduction in IL-1beta expression at 1 to 5 uM by RT-PCR analysis; type: functional, organism-based; settings: dose 1-5 µM
# [3] = tested on: Zika virus; experiment: Antiviral activity against ZIKV ZG-01 infected in Ifnar1 knockout C57BL/6 mouse assessed as reduction in number of animal paralysis at 20 mg/kg, iv administered daily for 7 days; type: functional, organism-based; settings: time 7.0 day
# [4] = tested on: Zika virus; experiment: Antiviral activity against ZIKV ZG-01 infected in SNB-19 cells preincubated for 1 hr followed by replacement with fresh media containing compound for 48 hrs by crystal violet staining based plaque assay; type: functional
# [5] = tested on: SNB-19; experiment: Antiinflammatory activity in human SNB-19 cells assessed as reduction in TNFalpha expression by RT-PCR analysis; type: functional, cell-based
# [6] = tested on: HEK-293T; experiment: Effect on gaussia luciferase expression in HEK293T cells at 1 to 10 uM; type: functional, cell-based; settings: Homo sapiens, dose 1-10 µM
# [7] = tested on: Zika virus; experiment: Antiviral activity against ZIKV ZG-01 infected in SNB-19 cells assessed as reduction in viral envelope protein level at 10 uM after 18 to 48 hrs by Western blot assay; type: functional, organism-based; settings: time 18-48 hrs
# [8] = Toxicity in Ifnar1 knockout C57BL/6 mouse assessed as corneal opacities at 60 mg/kg administered for 7 days; type: organism-based; settings: in vivo, 168 h, time 7 day
# [9] = tested on: Zika virus; experiment: Antiviral activity against ZIKV ZG-01 infected in Ifnar1 knockout C57BL/6 mouse assessed as reduction in mortality rate at 20 mg/kg, iv administered daily for 7 days; type: functional, organism-based; settings: time 7.0 day
# [10] = tested on: Zika virus; experiment: Antiviral activity against ZIKV ZG-01 infected in SNB-19 cells assessed as reduction in viral envelope protein level at 1 to 20 uM after 48 hrs by Western blot assay; type: functional, organism-based; settings: dose 1-20 µM
# [11] = tested on: Zika virus; experiment: Antiviral activity against ZIKV ZG-01 infected in human JEG-3 cells assessed as reduction in TNFalpha release at 1 to 5 uM by ELISA; type: functional, organism-based; settings: dose 1-5 µM
# [12] = Toxicity in Ifnar1 knockout C57BL/6 mouse assessed as body weight loss at 60 mg/kg administered for 7 days; type: organism-based; settings: in vivo, 168 h, time 7 day
# [13] = tested on: Zika virus; experiment: Antiviral activity against ZIKV ZG-01 infected in human JEG-3 cells assessed as reduction in TNFalpha expression at 1 to 5 uM by RT-PCR analysis; type: functional, organism-based; settings: dose 1-5 µM
# [14] = tested on: Zika virus; experiment: Antiviral activity against ZIKV ZG-01 infected in Vero cells preincubated for 1 hr followed by replacement with fresh media containing compound for 48 hrs by crystal violet staining based plaque assay; type: functional
# [15] = tested on: Zika virus; experiment: Antiviral activity against ZIKV ZG-01 infected in human SNB-19 cells assessed as reduction in IL-1beta expression at 1 to 5 uM by RT-PCR analysis; type: functional, organism-based; settings: dose 1-5 µM
# [16] = tested on: Zika virus; experiment: Antiviral activity against ZIKV ZG-01 infected in SNB-19 cells assessed as reduction in viral envelope protein expression at 5 uM by immunofluorescence assay; type: functional, organism-based
# [17] = tested on: Zika virus; experiment: Antiviral activity against ZIKV ZG-01 infected in A549 cells assessed as reduction in viral replication at 20 uM preincubated for 1 hr followed by replacement with fresh media containing compound for 48 hrs by RT-PCR analysis; type: functional; design: scale not given: the % may be the effect or the level left; settings: time 49 hrs
# [18] = tested on: JEG-3; experiment: Antiinflammatory activity in human JEG-3 cells assessed as reduction in TNFalpha expression by RT-PCR analysis; type: functional, cell-based
# [19] = tested on: Zika virus; experiment: Antiviral activity against ZIKV ZG-01 infected in JEG-3 cells assessed as reduction in viral envelope protein level at 10 uM after 18 to 48 hrs by Western blot assay; type: functional, organism-based; settings: time 18-48 hrs
# [20] = tested on: Zika virus; experiment: Antiviral activity against ZIKV ZG-01 infected in human SNB-19 cells assessed as reduction in TNFalpha expression at 1 to 5 uM by RT-PCR analysis; type: functional, organism-based; settings: dose 1-5 µM
# [21] = tested on: JEG-3; experiment: Antiinflammatory activity in human JEG-3 cells assessed as reduction in IL-6 expression by RT-PCR analysis; type: functional, cell-based
# [22] = tested on: Zika virus; experiment: Antiviral activity against ZIKV ZG-01 infected in human SNB-19 cells assessed as reduction in GSDMD cleavage by Western blot analysis; type: functional, organism-based; settings: dose 1-20 µM
# [23] = target: NS5 (Zika virus, UniProt A0A143MHK7); experiment: Binding affinity to ZIKV RdRP by SPR assay
# NS5, sequence (A0A143MHK7 whole entry): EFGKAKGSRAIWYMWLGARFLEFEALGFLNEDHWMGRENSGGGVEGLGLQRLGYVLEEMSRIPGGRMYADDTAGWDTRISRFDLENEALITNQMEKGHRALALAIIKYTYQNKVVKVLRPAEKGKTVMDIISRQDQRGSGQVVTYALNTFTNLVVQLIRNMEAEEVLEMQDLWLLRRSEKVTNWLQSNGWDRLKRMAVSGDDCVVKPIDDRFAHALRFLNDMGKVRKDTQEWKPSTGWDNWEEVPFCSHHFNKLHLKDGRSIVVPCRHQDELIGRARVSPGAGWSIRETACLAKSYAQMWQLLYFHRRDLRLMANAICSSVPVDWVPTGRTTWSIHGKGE
# [24] = Cytotoxicity against human A549 cells assessed as reduction in cell viability incubated for 48 hrs by MTT assay; type: toxicity, cell-based
# [25] = Cytotoxicity against african green monkey Vero cells assessed as reduction in cell viability incubated for 48 hrs by MTT assay; type: toxicity, cell-based; settings: chlorocebus sabaeus
# [26] = tested on: Zika virus; experiment: Antiviral activity against ZIKV ZG-01 infected in human JEG-3 cells assessed as reduction in cell pyroptosis; type: functional, organism-based
# [27] = tested on: JEG-3; experiment: Antiinflammatory activity in human JEG-3 cells assessed as reduction in IL-1beta expression by RT-PCR analysis; type: functional, cell-based
# [28] = tested on: Zika virus; experiment: Antiviral activity against ZIKV ZG-01 infected in JEG-3 cells assessed as reduction in viral envelope protein expression at 5 uM by immunofluorescence assay; type: functional, organism-based
# [29] = tested on: Zika virus; experiment: Antiviral activity against ZIKV ZG-01 infected in Ifnar1 knockout C57BL/6 mouse assessed as reduction in neuronal necrosis by measuring pyknosis at 20 mg/kg, iv administered daily for 7 days and measured upto 12 dpi by H and E staining based analysis; type: functional, organism-based; settings: time <= 12.0 day
compound,measurement,setting,value
C[C@]1(O)CC2=C(C[C@@]1(C)O)C(=O)c1c(O)cc(N3CCC(c4ccccc4)CC3)c(O)c1C2=O,Activity,[1],Dose-Dependent Effect
same,Activity,[2],Active
same,Activity,[3],Active
same,EC90,"[4]; ZG-01, SNB-19, time 49 hrs",6.4 µM
same,Activity,[4]; time 49.0 hrs,Dose-Dependent Effect
same,Activity,[5],inactive
same,Activity,[6],inactive
same,Activity,[7],Active
same,Activity,[8],Non-Toxic
same,Activity,[9],Active
same,Activity,[10],Active
same,Activity,[11],Active
same,Activity,[12],Non-Toxic
same,Activity,[13],Active
same,EC90,"[14]; ZG-01, Vero, time 49 hrs",6.4 µM
same,Activity,[14]; time 49.0 hrs,Dose-Dependent Effect
same,Activity,[15],Active
same,Activity,[16],Active
same,Activity,[17],100%
same,Activity,[18],inactive
same,Activity,[19],Active
same,Activity,[20],Active
same,Activity,[21],inactive
same,Activity,[22],Dose-Dependent Effect
same,Kd,[23],10.4 µM
same,CC50 at 48 h,[24],> 50 µM
same,CC50 at 48 h,[25],65.4 µM
same,Activity,[26],Active
same,Activity,[27],inactive
same,Activity,[28],Active
same,Activity,[29],Active

# From ChEMBL document CHEMBL5620422, “Design, synthesis, and biological evaluation of a series of new anthraquinone derivatives as anti-ZIKV agents” (Eur J Med Chem, 2023)
